Results published in the supplement of paper PMC10307832.

What was measured:
Assay in all cases: relative viability (nuclei count vs DMSO), 5 days (fraction); higher = more cells survive
Alisertib + Crizotinib = compound: COc1cc(Nc2ncc3c(n2)-c2ccc(Cl)cc2C(c2c(F)cccc2OC)=NC3)ccc1C(=O)O [Alisertib] + C[C@@H](Oc1cc(-c2cnn(C3CCNCC3)c2)cnc1N)c1c(Cl)ccc(F)c1Cl [Crizotinib] (partner 1 µM)
Procedure, shortened: (§1)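 Cells from lung cancer lines were seeded into 1536-well plates and, one day later, dosed by pin tool. Treatments were either a single drug or a fixed dose of an anchor drug with five library-drug doses (not always all listed) in √10 steps. After 5 days, nuclei were stained in a one-step fixation (final 0.05% Triton X-100, 1% formaldehyde, 1 ug/ml Hoechst) and counted on 4× images, and relative viability is the treated-to-vehicle nuclei ratio, as the median of duplicate plates.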

Alisertib + Pictilisib = compound: COc1cc(Nc2ncc3c(n2)-c2ccc(Cl)cc2C(c2c(F)cccc2OC)=NC3)ccc1C(=O)O [Alisertib] + CS(=O)(=O)N1CCN(Cc2cc3nc(-c4cccc5[nH]ncc45)nc(N4CCOCC4)c3s2)CC1 [Pictilisib] (partner 1 µM)
Procedure, shortened: as §1

Alisertib + Dasatinib = compound: COc1cc(Nc2ncc3c(n2)-c2ccc(Cl)cc2C(c2c(F)cccc2OC)=NC3)ccc1C(=O)O [Alisertib] + Cc1nc(Nc2ncc(C(=O)Nc3c(C)cccc3Cl)s2)cc(N2CCN(CCO)CC2)n1 [Dasatinib] (partner 0.075 µM)
Procedure, shortened: as §1

Alisertib + Vorinostat = compound: COc1cc(Nc2ncc3c(n2)-c2ccc(Cl)cc2C(c2c(F)cccc2OC)=NC3)ccc1C(=O)O [Alisertib] + O=C(CCCCCCC(=O)Nc1ccccc1)NO [Vorinostat] (partner 1 µM)
Procedure, shortened: as §1

| Cell Line | relative viability (Alisertib + Crizotinib; first compound 0.005 µM) | relative viability (Alisertib + Crizotinib; first compound 0.01581 µM) | relative viability (Alisertib + Crizotinib; first compound 0.05 µM) | relative viability (Alisertib + Crizotinib; first compound 0.1581 µM) | relative viability (Alisertib + Crizotinib; first compound 0.5 µM) | relative viability (Alisertib + Pictilisib; first compound 0.005 µM) | relative viability (Alisertib + Pictilisib; first compound 0.01581 µM) | relative viability (Alisertib + Pictilisib; first compound 0.05 µM) | relative viability (Alisertib + Pictilisib; first compound 0.1581 µM) | relative viability (Alisertib + Pictilisib; first compound 0.5 µM) | relative viability (Alisertib + Dasatinib; first compound 0.005 µM) | relative viability (Alisertib + Dasatinib; first compound 0.01581 µM) | relative viability (Alisertib + Dasatinib; first compound 0.05 µM) | relative viability (Alisertib + Dasatinib; first compound 0.1581 µM) | relative viability (Alisertib + Dasatinib; first compound 0.5 µM) | relative viability (Alisertib + Vorinostat; first compound 0.005 µM) | relative viability (Alisertib + Vorinostat; first compound 0.01581 µM) | relative viability (Alisertib + Vorinostat; first compound 0.05 µM) | relative viability (Alisertib + Vorinostat; first compound 0.1581 µM) | relative viability (Alisertib + Vorinostat; first compound 0.5 µM) |
| --- | --- | --- | --- | --- | --- | --- | --- | --- | --- | --- | --- | --- | --- | --- | --- | --- | --- | --- | --- | --- |
| NCI-H2405 | 0.781 | 0.794 | 0.491 | 0.268 | 0.253 | 0.433 | 0.358 | 0.365 | 0.274 | 0.176 | 0.196 | 0.202 | 0.189 | 0.152 | 0.132 | 0.913 | 0.898 | 0.799 | 0.288 | 0.213 |
| NCI-H3122 | 0.244 | 0.306 | 0.217 | 0.218 | 0.191 | 0.584 | 0.62 | 0.586 | 0.266 | 0.198 | 0.581 | 0.664 | 0.498 | 0.103 | 0.134 | 0.891 | 0.79 | 0.799 | 0.282 | 0.186 |
| PC-3 [JPC-3] | 0.955 | 0.981 | 0.646 | 0.474 | 0.386 | 0.616 | 0.728 | 0.667 | 0.349 | 0.369 | 0.917 | 0.927 | 0.907 | 0.781 | 0.442 | 0.596 | 0.68 | 0.769 | 0.367 | 0.354 |
| PC-14 | 0.845 | 0.877 | 0.654 | 0.145 | 0.112 | 0.632 | 0.672 | 0.447 | 0.127 | 0.0567 | 0.213 | 0.248 | 0.177 | 0.0304 | 0.0192 | 0.627 | 0.63 | 0.367 | 0.0643 | 0.0761 |
